According to ChEMBL document CHEMBL6087404, “Naphthoindole-2-carboxamides as a lipophilic chemotype of hetarene-anthraquinones potent against P-gp resistant tumor cells” (Eur J Med Chem, 2025):
Active and inactive are the calls of the source. The calls are words filed in the database; no cut-off is given here.

How the values were obtained:
[1] = Drug uptake in nuclear membrane of human HCT-116 cells at 3 uM incubated for 1 hr by confocal microscopy; format: ADME, cell membranes; details: hct-116, 1 h
[2] = Resistance index, ratio of IC50 for human K562/4 cells to IC50 for human K562 cells; format: functional
[3] = test system: K562; experiment: Induction of apoptosis in human K562 cells assessed as viable cells at 1 uM incubated for 48 hrs by Annexin V-FITC/PI staining based flow cytometry (reference value: 85.9 %); format: functional; details: read-out: Activity
[4] = test system: K562; experiment: Induction of apoptosis in human K562 cells assessed as late apoptotic cells at 1 uM incubated for 24 hrs by Annexin V-FITC/PI staining based flow cytometry (reference value: 2.5 %); format: functional
[5] = test system: K562; experiment: Effect on cell cycle distribution in human K562 cells assessed as cells with fragmented DNA at sub-G1 phase at 0.75 uM incubated for 48 hrs by PI staining based flow cytometry (reference value: 3 %); format: functional
[6] = test system: K562/4; experiment: Induction of apoptosis in human K562/4 cells assessed as late apoptotic cells at 1 uM incubated for 24 hrs by Annexin V-FITC/PI staining based flow cytometry (reference value: 2.5 %); format: functional
[7] = test system: K562; experiment: Effect on cell cycle distribution in human K562 cells assessed as cells with fragmented DNA at sub-G1 phase at 1 uM incubated for 24 hrs by PI staining based flow cytometry (reference value: 3 %); format: functional
[8] = test system: K562/4; experiment: Antiproliferative activity against human K562/4 cells incubated for 72 hrs by MTT assay; format: functional, cell-based; details: K562/4, 72 h
[9] = test system: K562; experiment: Effect on cell cycle distribution in human K562 cells assessed as cells with fragmented DNA at sub-G1 phase at 1 uM incubated for 48 hrs by PI staining based flow cytometry (reference value: 3 %); format: functional
[10] = Drug uptake in P-gp+ human K562/4 cells at 2 uM incubated for 3 to 120 hrs by flow cytometry; format: ADME, cell-based; details: k562/4, 2 µM, time 3-120 hrs
[11] = test system: DNA; experiment: Binding affinity to pBR322 plasmid DNA (unknown origin) assessed as effect on electrophoretic mobility of DNA at 1 to 40 uM incubated for 30 mins; format: nucleic-acid assay; details: Escherichia coli, dose 1-40 µM
[12] = Drug uptake in lysosome of human HCT-116 cells at 3 uM incubated for 1 hr by LysoTracker Deep Red dye based confocal microscopy; format: ADME, subcellular; details: hct-116, 1 h
[13] = Drug uptake in human K562i/S9 cells assessed as fold increase at 2 uM incubated for 3 to 120 hrs by flow cytometry relative to LCTA-2640; format: ADME, cell-based; details: k562i/s9, 2 µM, time 3-120 hrs
[14] = Drug uptake in P-gp+ human K562i/S9 cells at 2 uM incubated for 3 to 120 hrs by flow cytometry; format: ADME, cell-based; details: k562i/s9, 2 µM, time 3-120 hrs
[15] = test system: K562/4; experiment: Induction of apoptosis in human K562/4 cells assessed as viable cells at 1 uM incubated for 24 hrs by Annexin V-FITC/PI staining based flow cytometry (reference value: 10.8 %); format: functional; details: read-out: Activity
[16] = test system: K562/4; experiment: Effect on cell cycle distribution in human K562/4 cells assessed as cells with fragmented DNA at sub-G1 phase at 1 uM incubated for 48 hrs by PI staining based flow cytometry (reference value: 4 %); format: functional
[17] = test system: K562/4; experiment: Effect on cell cycle distribution in human K562/4 cells assessed as cells with fragmented DNA at sub-G1 phase at 0.75 uM incubated for 72 hrs by PI staining based flow cytometry (reference value: 4 %); format: functional
[18] = test system: K562/4; experiment: Effect on cell cycle distribution in human K562/4 cells assessed as cells with fragmented DNA at sub-G1 phase at 0.75 uM incubated for 48 hrs by PI staining based flow cytometry (reference value: 4 %); format: functional
[19] = test system: K562; experiment: Induction of apoptosis in human K562 cells assessed as late apoptotic cells at 1 uM incubated for 48 hrs by Annexin V-FITC/PI staining based flow cytometry (reference value: 2.5 %); format: functional
[20] = test system: K562; experiment: Induction of apoptosis in human K562 cells assessed as early apoptotic cells at 1 uM incubated for 48 hrs by Annexin V-FITC/PI staining based flow cytometry (reference value: 0.8 %); format: functional
[21] = test system: K562; experiment: Effect on cell cycle distribution in human K562 cells assessed as cells with fragmented DNA at sub-G1 phase at 0.75 uM incubated for 72 hrs by PI staining based flow cytometry (reference value: 3 %); format: functional
[22] = Drug uptake in cytoplasmic membrane of human HCT-116 cells at 3 uM incubated for 1 hr by confocal microscopy; format: ADME, cell membranes, Cytoplasm membrane; details: hct-116, 1 h
[23] = Drug uptake in human K562/4 cells assessed as fold increase at 2 uM incubated for 3 to 120 hrs by flow cytometry relative to LCTA-2640; format: ADME, cell-based; details: k562/4, 2 µM, time 3-120 hrs
[24] = test system: K562; experiment: Effect on cell cycle distribution in human K562 cells assessed as cells with fragmented DNA at sub-G1 phase at 1 uM incubated for 72 hrs by PI staining based flow cytometry (reference value: 3 %); format: functional
[25] = test system: K562/4; experiment: Effect on cell cycle distribution in human K562/4 cells assessed as cells with fragmented DNA at sub-G1 phase at 0.75 uM incubated for 24 hrs by PI staining based flow cytometry (reference value: 4 %); format: functional
[26] = test system: K562; experiment: Induction of apoptosis in human K562 cells assessed as viable cells at 1 uM incubated for 24 hrs by Annexin V-FITC/PI staining based flow cytometry (reference value: 85.9 %); format: functional; details: read-out: Activity
[27] = Drug uptake in verapamil-treated human K562i/S9 cells at 2 uM incubated for 3 to 120 hrs by flow cytometry relative to wild-type culture; format: ADME, cell-based; details: k562i/s9, 2 µM, time 3-120 hrs
[28] = test system: K562; experiment: Induction of apoptosis in human K562 cells assessed as necrotic cells at 1 uM incubated for 48 hrs by Annexin V-FITC/PI staining based flow cytometry (reference value: 10.8 %); format: functional
[29] = Selectivity index, ratio of IC50 for human hFB-hTERT6 cells to IC50 for human K562 cells; format: toxicity; details: hFB-hTERT6 cells and K562 cells, read-out: Ratio IC50
[30] = test system: A549; experiment: Antiproliferative activity against human A549 cells incubated for 72 hrs by MTT assay; format: functional, cell-based; details: A549, 72 h
[31] = test system: K562/4; experiment: Induction of apoptosis in human K562/4 cells assessed as early apoptotic cells at 1 uM incubated for 24 hrs by Annexin V-FITC/PI staining based flow cytometry (reference value: 1 %); format: functional
[32] = test system: K562/4; experiment: Effect on cell cycle distribution in human K562/4 cells assessed as cells with fragmented DNA at sub-G1 phase at 1 uM incubated for 72 hrs by PI staining based flow cytometry (reference value: 4 %); format: functional
[33] = test system: K562; experiment: Induction of apoptosis in human K562 cells assessed as early apoptotic cells at 1 uM incubated for 24 hrs by Annexin V-FITC/PI staining based flow cytometry (reference value: 0.8 %); format: functional
[34] = Drug uptake in verapamil-treated human K562/4 cells at 2 uM incubated for 3 to 120 hrs by flow cytometry relative to wild-type culture; format: ADME, cell-based; details: k562/4, 2 µM, time 3-120 hrs

Drug uptake [1]: Not_active
IC50 [8]: 1.2 µM
Drug uptake [10]: Active
Activity [11]: inactive
Drug uptake [12]: Active
fold change (FC) [13]: <= 2
Drug uptake [14]: Active
Drug uptake [22]: Not_active
fold change (FC) [23]: <= 2
Drug uptake [27]: 50%
IC50 [30]: 7.7 µM
Drug uptake [34]: 80%
SMILES: CS(=O)(=O)O.N[C@H]1CCN(C(=O)c2cc3c(O)c4c(c(O)c3[nH]2)C(=O)c2ccccc2C4=O)C1
Ratio IC50 [2]: 2.4
viability at 1 µM [3]: 11.9%
Activity [4]: 24.5%
Activity [5]: 26%
Activity [6]: 20.4%
Activity [7]: 42%
Activity [9]: 84%
viability at 1 µM [15]: 48.9%
Activity [16]: 54%
Activity [17]: 5%
Activity [18]: 6%
Activity [19]: 43.8%
Activity [20]: 0.5%
Activity [21]: 30%
Activity [24]: 97%
Activity [25]: 8%
viability at 1 µM [26]: 29%
Activity [28]: 43.7%
selectivity ratio [29]: 8.4
Activity [31]: 0.6%
Activity [32]: 89%
Activity [33]: 0.2%
